Literature values as cited in patent publication US20120315265A1, “HYDROGEL-FORMING POLYMER, AND PREPARATION PROCESS AND USES THEREOF” (CHANG GUNG UNIVERSITY, priority 2011, published 2012).

Legend:
[1] = in the anterior chamber
[2] = in vivo

## CC[C@@H]1C(=O)OC[C@@H]1Cc1cncn1C [pilocarpine]
[1]
  effective therapeutic dose for IOP reduction: 10 to 33 µg/mL
[2]
  duration of pupillary constriction: up to 8 hour
